How the values were obtained:
Type in all cases: cell-based, mouse
[1] = test system: primary hippocampal and cortical neurons; test: SARE-ArcMin-luciferase-PSD95-mVenus luciferase assay in primary neuronal cultures, 96-well; conditions: hippocampal vs cortical primary cultures, 96-well plate
Experimental: (§1) Animals were handled according to protocols approved by the Northwestern University Animal Care and Use Committee. Cortical neurons were harvested from mouse embryos euthanized at embryonic day 18 and plated in poly-D-lysine coated plates. Embryonic brains were dissected in ice-cold dissection media (Hank's balance salt solution HBSS, 2% penicillin-streptomycin, 20 mM HEPES). Meninges were removed from each brain and cortices were dissected out. The cortices were chopped into small pieces using a microscissors and pooled in 5 mL dissection media containing 0.25% trypsin and 0.1% DNasel and trypsinised at 37° ° C. for 20-25 min. Cortices were washed twice with warm dissection media, and once with warm plating medium (MEM, supplemented with 10% heat-inactivated horse serum, 0.6% glucose, 1 mM Na pyruvate, 1% Glutamax, 1% penicillin-streptomycin) for 5 min each. Tissues were titurated in 3 mL fresh plating medium with unpolished and, subsequently, polished glass Pasteur pipettes. 1 k, 80 k, 150 k, 2500 k cells were seeded in 384-well, 12-well, 6-well plates, 10-cm dishes, respectively. […]
Luciferase substrate systems were prepared according to the Manufacturer's instructions. […] Plates were read by Biotek Syngery Neo2 plate reader. […]

primary cortical neurons = test: Western blot of biotinylation by TurboID constructs in cortical neurons; conditions: 55 mM KCl
Experimental: as §1, with “pipettes.” for “pipettes. 1 k, 80 k, 150 k, 2500 k cells were seeded in 384-well, 12-well, 6-well plates, 10-cm dishes, respectively.”
Cell pellets were sonicated in NP40 lysis buffer (1% NP40, 150 mM NaCl, 50 mM Tris, pH 8, 1× Halt). […] Total protein was detected using REVERT 700 according to the manufacturer instructions. […] All quantification was performed using LI-COR Image Studio version 5.2. For densitometry quantification, band signals were normalized to total protein stain in each blot using the equation below.

NanoLuc = test: Western blot analysis of forskolin stimulation in cell culture: NanoLuc (RFP); conditions: 1 μM forskolin vs 0.1% DMSO, normalized band signal, n=3, adj. p=0.324
Experimental: (§2) For initial 384-well plate set up and western blot validation, forskolin (from 25 mM DMSO stock) was used as a positive control and DMSO was used as a vehicle control. For example, at 25 and 2.5 μM forskolin (0.1%, 0.01% DMSO), the corresponding vehicle control was 0.1% and 0.01% DMSO, respectively. Media was changed to NB-27 containing pharmacological agents (concentration specified in figure legends) and processed as described in each section 16 hrs after treatment.
(§3) Cell pellets were sonicated in NP40 lysis buffer (1% NP40, 150 mM NaCl, 50 mM Tris, pH 8, 1× Halt). Proteins were separated in 12% Tris-glycine gels and transferred to nitrocellulose membrane (Cat. No. 926-31090, LI-COR, NE, USA). Blots were briefly rinsed with TBS. Total protein was detected using REVERT 700 according to the manufacturer instructions. For detecting individual proteins, unless specified, blots were blocked with 5% milk-containing TBST (0.1% Tween20) for 1 hr at RT. Primary antibodies were added in the same blocking buffer for overnight incubation (1:1,000 rabbit RFP, Rockland, Cat. No., 600-401-379-RTU, and 1:1,000 mouse Psd95 Biolegend Cat. Nol, 810401)). […] All quantification was performed using LI-COR Image Studio version 5.2. For densitometry quantification, band signals were normalized to total protein stain in each blot using the equation below. […]

Psd95 = test: Western blot analysis of forskolin stimulation in cell culture: Psd95; conditions: 1 μM forskolin vs 0.1% DMSO, normalized band signal, n=3, adj. p=1
Experimental: as §2, §3

cFos = test: Western blot analysis of forskolin stimulation in cell culture: cFos; conditions: 1 μM forskolin vs 0.1% DMSO, normalized band signal, n=3, adj. p=0.0462
Experimental: as §2, §3

COc1ccc(-c2ccc(=N)n(CCCC(=O)O)n2)cc1 [Gabazine]
dose-response of luciferase activity, construct (1) [1]: dose-response is cell-type specific

[Cl-].[K+] [KCl]
biotin-labelling after induction of neuronal activity (primary cortical neurons): enhanced biotin-labelling

CNC1(c2ccccc2Cl)CCCCC1=O (stereo not drawn) [Ketamine]
dose-response of luciferase activity, construct (1) [1]: dose-response is cell-type specific

C=C[C@@]1(C)CC(=O)[C@]2(O)[C@@]3(C)[C@@H](O)CCC(C)(C)[C@@H]3[C@H](O)[C@H](OC(C)=O)[C@@]2(C)O1 [forskolin]
NanoLuc expression, FSK−DMSO (NanoLuc): 0.583±0.267 | Psd95 expression, FSK−DMSO (Psd95): −0.048±0.1131 | cFos expression, FSK−DMSO (cFos): 3.232±0.769
